Earlier results on 1 substance are cited in publication PMC3272643 (Organic process research & development, 2012).

The subject of this data set is peptide-cleaving proteases.

As for gramicidin S, the “resistance to peptide-cleaving proteases” value is listed as “significant resistance to peptide-cleaving proteases”.
